Results reported in patent US8975263B2, “Phenylxanthene derivatives” (Daiichi Sankyo Company, Limited, priority 2013, dated 2015).

These compounds were tested on C57BL/6J mice (assay: Oral glucose tolerance test). Conditions: male C57BL/6J mice, fasted overnight; oral gavage 10 mg/kg; solvent 0.5% MC; glucose 3 g/kg orally 30 minutes after compound; area under the curve of blood glucose level relative to control group.
Format: in vivo
Protocol: Commercially available mice (C57BL/6J mice; male; 8 to 12 weeks old when used; distributed by Charles River Laboratories Japan, Inc.) were used.
After acclimatization with freely feeding (FR-2, Funabashi Farm Co., Ltd.) for one week or more, the mice were fasted overnight and then used for the test. A 0.5% methylcellulose (Wako Pure Chemical Industries, Ltd.) solution (0.5% MC) containing a test compound at a concentration of 1 mg/ml and a mixed solution (PG:Tween) of propylene glycol (80 v/v %, Nacalai Tesque, Inc.) and Tween 80 (20 v/v %, Nacalai Tesque, Inc.) containing a test compound at a concentration of 2 mg/ml were prepared for administration to the mice. The prepared solution was administered by oral gavage to four or five mice in each group at a dose of 10 mg/kg as the test compound. For a control group, a 0.5% methylcellulose solution (dose: 10 ml/kg) or a mixed solution of propylene glycol and Tween 80 (dose: 5 ml/kg) was orally administered to mice. An oral glucose tolerance test was carried out by administering a glucose solution (Otsuka Glucose Solution 50%; Otsuka Pharmaceutical Factory, Inc.) orally at a dose of 3 g/kg to the mice 30 minutes after administration of the test compound.
Blood was collected from the tail vein of each mouse immediately before administration of the test compound (T0), […] after administration of the test compound (T1), and 30 minutes (T2) and 90 minutes (T3) after oral glucose loading. The blood glucose level was measured using a blood glucose level measuring apparatus (ACCU-CHEK Aviva; Roche Diagnostics, K.K.). The blood glucose level T1 was analyzed as a value obtained 30 minutes after administration of the compound and immediately before glucose loading. According to the following formula, the area under the curve of blood glucose level was calculated, and thereafter, the blood glucose lowering rate (%) was calculated as a value relative to the control group. The area under the curve of blood glucose level=[(blood glucose level T0+blood glucose level T1)×30]÷2+[(blood glucose level T1+blood glucose level T2)×30]÷2+[(blood glucose level T2+blood glucose level T3)×60]÷2 Blood glucose lowering rate(%)=[1−(the area under the curve of blood glucose level for the test compound group/the area under the curve of blood glucose level for the control group)]×100

Row | Compound | Blood glucose lowering rate (%)
1 | COc1ccc(-c2ccc(C)c(C(=O)NS(C)(=O)=O)n2)c(C)c1C1C2=C(CC(C)(C)CC2=O)OC2=C1C(=O)CC(C)(C)C2.COc1ccc(-c2ccc(C)c(C(=O)NS(C)(=O)=O)n2)c(C)c1C1C2=C(CC(C)(C)CC2=O)OC2=C1C(=O)CC(C)(C)C2.[Ca] [Example 21, 6-[4-Methoxy-2-methyl-3-(3,3,6,6-tetramethyl-1,8-dioxo-2,3,4,5,6,7,8,9-octahydro-1H-xanthen-9-yl)phenyl]-3-methyl-N-(methylsulfonyl)pyridine-2-carboxamide hemi-calcium salt] | 54%
2 | COc1ccc(-c2cccc(C(=O)NS(C)(=O)=O)n2)c(C)c1C1C2=C(CC(C)(C)CC2=O)OC2=C1C(=O)CC(C)(C)C2.COc1ccc(-c2cccc(C(=O)NS(C)(=O)=O)n2)c(C)c1C1C2=C(CC(C)(C)CC2=O)OC2=C1C(=O)CC(C)(C)C2.[Ca] [Example 20, 6-[4-Methoxy-2-methyl-3-(3,3,6,6-tetramethyl-1,8-dioxo-2,3,4,5,6,7,8,9-octahydro-1H-xanthen-9-yl)phenyl]-N-(methylsulfonyl)pyridine-2-carboxamide hemi-calcium salt] | 41%
3 | COCCOc1ccc(-c2ccc(OC)c(C3C4=C(CC(C)(C)CC4=O)OC4=C3C(=O)CC(C)(C)C4)c2C)nc1C(=O)O [Example 29, 3-(2-Methoxyethoxy)-6-[4-methoxy-2-methyl-3-(3,3,6,6-tetramethyl-1,8-dioxo-2,3,4,5,6,7,8,9-octahydro-1H-xanthen-9-yl)phenyl]pyridine-2-carboxylic acid] | 32%
4 | COc1ccc(-c2cc(C)cc(C(=O)NS(C)(=O)=O)n2)c(C)c1C1C2=C(CC(C)(C)CC2=O)OC2=C1C(=O)CC(C)(C)C2 [Example 40, 6-[4-Methoxy-2-methyl-3-(3,3,6,6-tetramethyl-1,8-dioxo-2,3,4,5,6,7,8,9-octahydro-1H-xanthen-9-yl)phenyl]-4-methyl-N-(methylsulfonyl)pyridine-2-carboxamide] | 38%
5 | CCc1ccc(-c2ccc(OC)c(C3C4=C(CC(C)(C)CC4=O)OC4=C3C(=O)CC(C)(C)C4)c2C)nc1C(=O)O [Example 13, 3-Ethyl-6-[4-methoxy-2-methyl-3-(3,3,6,6-tetramethyl-1,8-dioxo-2,3,4,5,6,7,8,9-octahydro-1H-xanthen-9-yl)phenyl]pyridine-2-carboxylic acid] | 61%
6 | C#Cc1ccc(-c2ccc(OC)c(C3C4=C(CC(C)(C)CC4=O)OC4=C3C(=O)CC(C)(C)C4)c2C)nc1C(=O)O [Example 12, 3-Ethynyl-6-[4-methoxy-2-methyl-3-(3,3,6,6-tetramethyl-1,8-dioxo-2,3,4,5,6,7,8,9-octahydro-1H-xanthen-9-yl)phenyl]pyridine-2-carboxylic acid] | 31%
7 | COc1ccc(-c2ccc(C)c(C(=O)NS(C)(=O)=O)n2)cc1C1C2=C(CC(C)(C)CC2=O)OC2=C1C(=O)CC(C)(C)C2.[K] [Example 35, 6-[4-Methoxy-3-(3,3,6,6-tetramethyl-1,8-dioxo-2,3,4,5,6,7,8,9-octahydro-1H-xanthen-9-yl)phenyl]-3-methyl-N-(methylsulfonyl)pyridine-2-carboxamide potassium salt] | 52%
8 | COc1ccc(-c2cc(C)cc(C(=O)O)n2)c(C)c1C1C2=C(CC(C)(C)CC2=O)OC2=C1C(=O)CC(C)(C)C2 [Example 32, 6-[4-Methoxy-2-methyl-3-(3,3,6,6-tetramethyl-1,8-dioxo-2,3,4,5,6,7,8,9-octahydro-1H-xanthen-9-yl)phenyl]-4-methylpyridine-2-carboxylic acid] | 59%
9 | COc1ccc(-c2ccc(N)c(C(=O)NS(C)(=O)=O)n2)c(C)c1C1C2=C(CC(C)(C)CC2=O)OC2=C1C(=O)CC(C)(C)C2 [Example 49, 3-Amino-6-[4-methoxy-2-methyl-3-(3,3,6,6-tetramethyl-1,8-dioxo-2,3,4,5,6,7,8,9-octahydro-1H-xanthen-9-yl)phenyl]-N-(methylsulfonyl)pyridine-2-carboxamide] | 34%
10 | COc1ccc(-c2ccc(N)c(C(=O)O)n2)cc1C1C2=C(CC(C)(C)CC2=O)OC2=C1C(=O)CC(C)(C)C2 [Example 51, 3-Amino-6-[4-methoxy-3-(3,3,6,6-tetramethyl-1,8-dioxo-2,3,4,5,6,7,8,9-octahydro-1H-xanthen-9-yl)phenyl]pyridine-2-carboxylic acid] | 39%
11 | COc1ccc(-c2ccc(C)c(C(=O)NS(C)(=O)=O)n2)c(C)c1C1C2=C(CC(C)(C)CC2=O)OC2=C1C(=O)CC(C)(C)C2.[Na] [Example 19, 6-[4-Methoxy-2-methyl-3-(3,3,6,6-tetramethyl-1,8-dioxo-2,3,4,5,6,7,8,9-octahydro-1H-xanthen-9-yl)phenyl]-3-methyl-N-(methylsulfonyl)pyridine-2-carboxamide sodium salt] | 40%
12 | COc1ccc(-c2ccc(C)c(C(=O)NS(C)(=O)=O)n2)cc1C1C2=C(CC(C)(C)CC2=O)OC2=C1C(=O)CC(C)(C)C2 [Example 31, 6-[4-Methoxy-3-(3,3,6,6-tetramethyl-1,8-dioxo-2,3,4,5,6,7,8,9-octahydro-1H-xanthen-9-yl)phenyl]-3-methyl-N-(methylsulfonyl)pyridine-2-carboxamide] | 42%
13 | COc1ccc(-c2ccnc(CO)n2)c(C)c1C1C2=C(CC(C)(C)CC2=O)OC2=C1C(=O)CC(C)(C)C2 [Example 76, 9-{3-[2-(Hydroxymethyl)pyrimidin-4-yl]-6-methoxy-2-methylphenyl}-3,3,6,6-tetramethyl-3,4,5,6,7,9-hexahydro-1H-xanthene-1,8(2H)-dione] | 33%
14 | CC(C)(C)N.COc1ccc(-c2cccc(C(=O)NS(C)(=O)=O)n2)c(C)c1C1C2=C(CC(C)(C)CC2=O)OC2=C1C(=O)CC(C)(C)C2 [Example 18, 6-[4-methoxy-2-methyl-3-(3,3,6,6-tetramethyl-1,8-dioxo-2,3,4,5,6,7,8,9-octahydro-1H-xanthen-9-yl)phenyl]-N-(methylsulfonyl)pyridine-2-carboxamide 2-methylpropan-2-amine salt] | 31%
15 | CCc1ccc(-c2ccc(OC)c(C3C4=C(CC(C)(C)CC4=O)OC4=C3C(=O)CC(C)(C)C4)c2C)nc1C(=O)NS(C)(=O)=O [Example 17, 3-Ethyl-6-[4-methoxy-2-methyl-3-(3,3,6,6-tetramethyl-1,8-dioxo-2,3,4,5,6,7,8,9-octahydro-1H-xanthen-9-yl)phenyl]-N-(methylsulfonyl)pyridine-2-carboxamide] | 43%
16 | CNc1ccc(-c2ccc(OC)c(C3C4=C(CC(C)(C)CC4=O)OC4=C3C(=O)CC(C)(C)C4)c2C)nc1C(=O)NS(C)(=O)=O [Example 54, 6-[4-Methoxy-2-methyl-3-(3,3,6,6-tetramethyl-1,8-dioxo-2,3,4,5,6,7,8,9-octahydro-1H-xanthen-9-yl)phenyl]-3-(methylamino)-N-(methylsulfonyl)pyridine-2-carboxamide] | 49%
17 | COc1ccc(-c2ccc(C)c(C(=O)NS(C)(=O)=O)n2)c(C)c1C1C2=C(CC(C)(C)CC2=O)OC2=C1C(=O)CC(C)(C)C2 [Example 16, 6-[4-Methoxy-2-methyl-3-(3,3,6,6-tetramethyl-1,8-dioxo-2,3,4,5,6,7,8,9-octahydro-1H-xanthen-9-yl)phenyl]-3-methyl-N-(methylsulfonyl)pyridine-2-carboxamide] | 45%

Same assay, conditions: male C57BL/6J mice, fasted overnight; oral gavage 10 mg/kg; solvent PG:Tween; glucose 3 g/kg orally 30 minutes after compound; area under the curve of blood glucose level relative to control group

Row | Compound | Blood glucose lowering rate (%)
18 | COc1ccc(-c2ccc(O)c(C(=O)O)n2)c(C)c1C1C2=C(CC(C)(C)CC2=O)OC2=C1C(=O)CC(C)(C)C2 [Example 11, 3-Hydroxy-6-[4-methoxy-2-methyl-3-(3,3,6,6-tetramethyl-1,8-dioxo-2,3,4,5,6,7,8,9-octahydro-1H-xanthen-9-yl)phenyl]pyridine-2-carboxylic acid] | 42%
19 | COc1ccc(-c2cccc(C(=O)O)n2)cc1C1C2=C(CC(C)(C)CC2=O)OC2=C1C(=O)CC(C)(C)C2 [Example 1, 6-[4-Methoxy-3-(3,3,6,6-tetramethyl-1,8-dioxo-2,3,4,5,6,7,8,9-octahydro-1H-xanthen-9-yl)phenyl]pyridine-2-carboxylic acid] | 39%
20 | CCOc1ccc(-c2ccc(OC)c(C3C4=C(CC(C)(C)CC4=O)OC4=C3C(=O)CC(C)(C)C4)c2C)nc1C(=O)O [Example 28, 3-Ethoxy-6-[4-methoxy-2-methyl-3-(3,3,6,6-tetramethyl-1,8-dioxo-2,3,4,5,6,7,8,9-octahydro-1H-xanthen-9-yl)phenyl]pyridine-2-carboxylic acid] | 60%
